{"source": "patent US20220047569A1", "about": "“METHOD AND COMPOUND FOR USE, IN TREATING AND/OR PREVENTING NETOSIS” (Jubilant EpiPad LLC, priority 2020, published 2022)", "system": "Histone H3 Citrullination in Neutrophils", "experiment": "Citrullination ELISA (Citrullinated Histone H3) in calcium ionophore stimulated neutrophils", "format": "cell-based", "conditions": "Neutrophil; human neutrophils, 25 μM calcium ionophore, CitH3 ELISA", "in_short": "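Freshly isolated human donor neutrophils in RPMI with 2% BSA and 1 mM CaCl2 were pre-incubated 30 min with compound (10, 1, 0.1 μM), then stimulated 30 min with 25 μM calcium ionophore. After S7 nuclease digestion, lysates were assayed by citrullinated histone H3 ELISA (450 nm); IC50 from sigmoidal fits.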", "note": "Structures can show the parent of a compound that is named as a salt."}
{"smiles": "COc1ccc2c(c1)cc(-c1nc3cc(C(=O)N4CCC[C@@H](N)C4)cc4c3n1CCO4)n2CC1CC1", "note": "[Compound 146, (R)-(3-aminopiperidin-1-yl)(2-(1-(cyclopropylmethyl)-5-methoxy-1H-indol-2-yl)-3,4-dihydro-5-oxa-1,2a-diazaacenaphthylen-7-yl)methanone]", "values": [{"measurement": "IC50", "value": "100 to 1000", "unit": "nM"}]}
{"smiles": "COCCn1c(-c2nc3cc(C(=O)N4CCC[C@@H](N)C4)cc4c3n2CCO4)cc2cccc(Cl)c21", "note": "[Compound 122, (R)-(3-aminopiperidin-1-yl)(2-(7-chloro-1-(2-methoxyethyl)-1H-indol-2-yl)-3,4-dihydro-5-oxa-1,2a-diazaacenaphthylen-7-yl)methanone]", "values": [{"measurement": "IC50", "value": "100 to 1000", "unit": "nM"}]}
{"smiles": "Cc1c(-c2cc3ccccc3n2Cc2ccc(F)cc2)nc2cc(C(=O)N3CCC[C@@H](NC(=O)/C=C/CN(C)C)C3)ccn12", "note": "[Compound 56, (R,E)-4-(dimethylamino)-N-(1-(2-(1-(4-fluorobenzyl)-1H-indol-2-yl)-3-methylimidazo[1,2-a]pyridine-7-carbonyl)piperidin-3-yl)but-2-enamide]", "values": [{"measurement": "IC50", "value": "> 1000", "unit": "nM"}]}
{"smiles": "Cc1cccc2cc(-c3nc4cc(C(=O)N5CCC[C@@H](N)C5)ccn4c3C)n(CC3CC3)c12", "note": "[Compound 30, (R)-(3-aminopiperidin-1-yl)(2-(1-(cyclopropylmethyl)-7-methyl-1H-indol-2-yl)-3-methylimidazo[1,2-a]pyridin-7-yl)methanone]", "values": [{"measurement": "IC50", "value": "100 to 1000", "unit": "nM"}]}
{"smiles": "N[C@@H]1CCCN(C(=O)c2cc3c4c(c2)nc(-c2cc5cc(Br)ccc5n2CC2CC2)n4CCN3)C1", "note": "[Compound 153, (R)-(3-aminopiperidin-1-yl)(2-(5-bromo-1-(cyclopropylmethyl)-1H-indol-2-yl)-5,6-dihydro-4H-imidazo[1,5,4-de]quinoxalin-8-yl)methanone]", "values": [{"measurement": "IC50", "value": "< 100", "unit": "nM"}]}
{"smiles": "N[C@@H]1CCCN(C(=O)c2cc3c4c(c2)nc(-c2cc5ccccc5n2Cc2ncccn2)n4CCO3)C1", "note": "[Compound 113, (R)-(3-aminopiperidin-1-yl)(2-(1-(pyrimidin-2-ylmethyl)-1H-indol-2-yl)-3,4-dihydro-5-oxa-1,2a-diazaacenaphthylen-7-yl)methanone]", "values": [{"measurement": "IC50", "value": "< 100", "unit": "nM"}]}
{"smiles": "N[C@@H]1CCCN(C(=O)c2cc3c4c(c2)nc(-c2cc5ccccc5n2Cc2ccc(CO)cc2)n4CCO3)C1", "note": "[Compound 123, (R)-(3-aminopiperidin-1-yl)(2-(1-(4-(hydroxymethyl)benzyl)-1H-indol-2-yl)-3,4-dihydro-5-oxa-1,2a-diazaacenaphthylen-7-yl)methanone trifluoroacetic acid salt]", "values": [{"measurement": "IC50", "value": "100 to 1000", "unit": "nM"}]}
{"smiles": "COc1ccc(Cn2c(-c3nc4cc(C(=O)N5CCC[C@@H](N)C5)cc5c4n3CCO5)cc3ccc(F)cc32)cc1", "note": "[Compound 136, (R)-(3-aminopiperidin-1-yl)(2-(6-fluoro-1-(4-methoxybenzyl)-1H-indol-2-yl)-3,4-dihydro-5-oxa-1,2a-diazaacenaphthylen-7-yl)methanone]", "values": [{"measurement": "IC50", "value": "> 1000", "unit": "nM"}]}
{"smiles": "Cc1c(-c2cc3ccccc3n2Cc2ncccc2F)nc2cc(C(=O)N3CCC[C@@H](N)C3)ccn12", "note": "[Compound 62, (R)-(3-aminopiperidin-1-yl)(2-(1-((3-fluoropyridin-2-yl)methyl)-1H-indol-2-yl)-3-methylimidazo[1,2-a]pyridin-7-yl)methanone]", "values": [{"measurement": "IC50", "value": "100 to 1000", "unit": "nM"}]}
{"smiles": "COc1ccc2cc(-c3nc4cc(C(=O)N5CCC[C@@H](N)C5)cc5c4n3CCN5C)n(CC3CC3)c2c1", "note": "[Compound 160, (R)-(3-aminopiperidin-1-yl)(2-(1-(cyclopropylmethyl)-6-methoxy-1H-indol-2-yl)-6-methyl-5,6-dihydro-4H-imidazo[1,5,4-de]quinoxalin-8-yl)methanone]", "values": [{"measurement": "IC50", "value": "< 100", "unit": "nM"}]}
{"smiles": "Cc1c(-c2cc3ccccc3n2Cc2ccc(F)cc2)nc2cc(C(=O)N3CCC[C@@H](N)C3)ccn12", "note": "[Compound 13, (R)-(3-aminopiperidin-1-yl)(2-(1-(4-fluorobenzyl)-1H-indol-2-yl)-3-methylimidazo[1,2-a]pyridin-7-yl)methanone]", "values": [{"measurement": "IC50", "value": "100 to 1000", "unit": "nM"}]}
{"smiles": "COc1ccc2cc(-c3nc4cc(C(=O)N5CCC[C@@H](N)C5)ccn4c3C)n(Cc3cccnc3)c2c1", "note": "[Compound 51, (R)-(3-aminopiperidin-1-yl)(2-(6-methoxy-1-(pyridin-3-ylmethyl)-1H-indol-2-yl)-3-methylimidazo[1,2-a]pyridin-7-yl)methanone]", "values": [{"measurement": "IC50", "value": "> 1000", "unit": "nM"}]}
{"smiles": "Cc1ncc(Cn2c(-c3nc4cc(C(=O)N5CCC[C@@H](N)C5)ccn4c3C)cc3ccccc32)s1", "note": "[Compound 49, (R)-(3-aminopiperidin-1-yl)(3-methyl-2-(1-((2-methylthiazol-5-yl)methyl)-1H-indol-2-yl)imidazo[1,2-a]pyridin-7-yl)methanone]", "values": [{"measurement": "IC50", "value": "< 100", "unit": "nM"}]}
{"smiles": "COc1ccc(Cn2c(-c3nc4cc(C(=O)N5CCC[C@@H](N)C5)ccn4c3C)cc3ccccc32)cc1", "note": "[Compound 12, (R)-(3-aminopiperidin-1-yl)(2-(1-(4-methoxybenzyl)-1H-indol-2-yl)-3-methylimidazo[1,2-a]pyridin-7-yl)methanone]", "values": [{"measurement": "IC50", "value": "< 100", "unit": "nM"}]}
{"smiles": "Cc1c(-c2cc3ccccc3n2CC(C)C)nc2cc(C(=O)N3CCC[C@@H](N)C3)ccn12", "note": "[Compound 60, (R)-(3-aminopiperidin-1-yl)(2-(1-isobutyl-1H-indol-2-yl)-3-methylimidazo[1,2-a]pyridin-7-yl)methanone]", "values": [{"measurement": "IC50", "value": "> 1000", "unit": "nM"}]}
{"smiles": "N[C@@H]1CCCN(C(=O)c2cc3c4c(c2)nc(-c2cc5ccc(CO)cc5n2CC2CC2)n4CCO3)C1", "note": "[Compound 147, (R)-(3-aminopiperidin-1-yl)(2-(1-(cyclopropylmethyl)-6-(hydroxymethyl)-1H-indol-2-yl)-3,4-dihydro-5-oxa-1,2a-diazaacenaphthylen-7-yl) methanone]", "values": [{"measurement": "IC50", "value": "100 to 1000", "unit": "nM"}]}
{"smiles": "N[C@@H]1CCCN(C(=O)c2cc3c4c(c2)nc(-c2cc5cccc(Cl)c5n2Cc2ncccc2F)n4CCO3)C1", "note": "[Compound 120, (R)-(3-aminopiperidin-1-yl)(2-(7-chloro-1-((3-fluoropyridin-2-yl)methyl)-1H-indol-2-yl)-3,4-dihydro-5-oxa-1,2a-diazaacenaphthylen-7-yl)methanone]", "values": [{"measurement": "IC50", "value": "100 to 1000", "unit": "nM"}]}
{"smiles": "N[C@@H]1CCCN(C(=O)c2cc3c4c(c2)nc(-c2cc5ccccc5n2Cc2ccccc2F)n4CCN3)C1", "note": "[Compound 156, (R)-(3-aminopiperidin-1-yl)(2-(1-(2-fluorobenzyl)-1H-indol-2-yl)-5,6-dihydro-4H-imidazo[1,5,4-de]quinoxalin-8-yl)methanone]", "values": [{"measurement": "IC50", "value": "< 100", "unit": "nM"}]}
{"smiles": "Cc1csc(Cn2c(-c3nc4cc(C(=O)N5CCC[C@@H](N)C5)cc5c4n3CCO5)cc3ccccc32)n1", "note": "[Compound 145, (R)-(3-aminopiperidin-1-yl)(2-(1-((4-methylthiazol-2-yl)methyl)-1H-indol-2-yl)-3,4-dihydro-5-oxa-1,2a-diazaacenaphthylen-7-yl)methanone]", "values": [{"measurement": "IC50", "value": "< 100", "unit": "nM"}]}
{"smiles": "CC(C)Cn1c(-c2nc3cc(C(=O)N4CCC[C@@H](N)C4)cc4c3n2CCO4)cc2ccccc21", "note": "[Compound 117, (R)-(3-aminopiperidin-1-yl)(2-(1-isobutyl-1H-indol-2-yl)-3,4-dihydro-5-oxa-1,2a-diazaacenaphthylen-7-yl)methanone]", "values": [{"measurement": "IC50", "value": "100 to 1000", "unit": "nM"}]}
{"smiles": "CCn1c(-c2nc3cc(C(=O)N4CCC[C@@H](N)C4)ccn3c2C)cc2ccc(F)cc21", "note": "[Compound 72, (R)-(3-aminopiperidin-1-yl)(2-(1-ethyl-6-fluoro-1H-indol-2-yl)-3-methylimidazo[1,2-a]pyridin-7-yl)methanone]", "values": [{"measurement": "IC50", "value": "100 to 1000", "unit": "nM"}]}
